Measured values taken from PubChem BioAssay (NCI).
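Cultured in 96-well plates, cells were exposed to test compound for 48 hours across five concentrations. TGI: concentration producing complete growth inhibition.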

How the values were obtained:
Assay in all cases: NCI-60 cell line screen, 48 h
[1] = test system: NCI-H23 lung
[2] = test system: MDA-MB-231 breast
[3] = test system: EKVX NSCLC
[4] = test system: DLD-1 colon
[5] = test system: SNB-78 CNS
[6] = test system: SK-OV-3 ovarian
[7] = test system: SR leukemia
[8] = test system: DU-145 prostate
[9] = test system: HOP-18 NSCLC
[10] = test system: SF-268 CNS
[11] = test system: COLO 205 colon
[12] = test system: TK-10 renal
[13] = test system: NCI-H226 lung
[14] = test system: OVCAR-5 ovarian
[15] = test system: HCT-15 colon
[16] = test system: IGROV1 ovarian
[17] = test system: RXF-631 renal
[18] = test system: ACHN renal
[19] = test system: HS 578T breast
[20] = test system: 786-0 renal
[21] = test system: CAKI-1 renal
[22] = test system: A549 NSCLC
[23] = test system: SF-539 CNS
[24] = test system: LXFL 529 NSCLC
[25] = test system: BT-549 breast
[26] = test system: HCC-2998 colon
[27] = test system: HCT-116 colon
[28] = test system: NCI/ADR-RES ovarian
[29] = test system: UO-31 renal
[30] = test system: KM20L2 colon
[31] = test system: A498 renal
[32] = test system: HOP-62 NSCLC
[33] = test system: NCI-H460 lung
[34] = test system: MOLT-4 leukemia
[35] = test system: SNB-19 CNS
[36] = test system: UACC-62 melanoma
[37] = test system: SK-MEL-28 melanoma
[38] = test system: DMS 114 small cell lung
[39] = test system: LOX IMVI melanoma
[40] = test system: UACC-257 melanoma
[41] = test system: KM12 colon
[42] = test system: OVCAR-4 ovarian
[43] = test system: M14 melanoma
[44] = test system: M19-MEL melanoma
[45] = test system: U251 CNS
[46] = test system: MCF7 breast
[47] = test system: SK-MEL-5 melanoma
[48] = test system: NCI-H522 lung
[49] = test system: SF-295 CNS
[50] = test system: SW-620 colon
[51] = test system: SN12C renal
[52] = test system: OVCAR-3 ovarian
[53] = test system: OVCAR-8 ovarian
[54] = test system: PC-3 prostate
[55] = test system: HL-60(TB) leukemia
[56] = test system: CCRF-CEM leukemia
[57] = test system: XF 498 CNS
[58] = test system: RPMI-8226 leukemia
[59] = test system: K-562 leukemia
[60] = test system: MALME-3M melanoma
[61] = test system: T-47D breast
[62] = test system: SK-MEL-2 melanoma

Q: Which results are given for `COc1c(OC(C)=O)c(OC(C)=O)cc2c1-c1ccc(OC)c(=O)cc1C(NC(C)=O)CC2` (configuration not stated)?
A: TGI [1]: 5.24 µM; TGI [2]: > 100 µM; TGI [3]: > 100 µM; TGI [4]: > 100 µM; TGI [5]: > 100 µM; TGI [6]: > 48.1 µM; TGI [7]: > 100 µM; TGI [8]: > 100 µM; TGI [9]: > 100 µM; TGI [10]: 54.4 µM; TGI [11]: 0.133 µM; TGI [12]: > 100 µM; TGI [13]: 1.09 µM; TGI [14]: > 100 µM; TGI [15]: > 70 µM; TGI [16]: > 100 µM; TGI [17]: 18.2 µM; TGI [18]: > 100 µM; TGI [19]: > 100 µM; TGI [20]: > 100 µM; TGI [21]: > 100 µM; TGI [22]: > 100 µM; TGI [23]: 0.173 µM; TGI [24]: > 53 µM; TGI [25]: > 100 µM; TGI [26]: 24.8 µM; TGI [27]: 0.942 µM; TGI [28]: 74.1 µM; TGI [29]: > 100 µM; TGI [30]: 0.0795 µM; TGI [31]: 2.48 µM; TGI [32]: > 73 µM; TGI [33]: 13.1 µM; TGI [34]: > 85.8 µM; TGI [35]: > 95.5 µM; TGI [36]: > 100 µM; TGI [37]: > 100 µM; TGI [38]: 0.121 µM; TGI [39]: > 100 µM; TGI [40]: > 100 µM; TGI [41]: 0.555 µM; TGI [42]: > 100 µM; TGI [43]: > 100 µM; TGI [44]: > 100 µM; TGI [45]: 9.24 µM; TGI [46]: > 100 µM; TGI [47]: 0.0264 µM; TGI [48]: 0.0192 µM; TGI [49]: 0.564 µM; TGI [50]: > 100 µM; TGI [51]: > 100 µM; TGI [52]: 0.071 µM; TGI [53]: > 70.1 µM; TGI [54]: > 100 µM; TGI [55]: < 0.0103 µM; TGI [56]: > 100 µM; TGI [57]: 16.2 µM; TGI [58]: > 100 µM; TGI [59]: > 100 µM; TGI [60]: > 100 µM; TGI [61]: > 100 µM; TGI [62]: 9.38 µM
